According to patent US7465799B2, “Methods and compositions for selectin inhibition” (Wyeth, priority 2003, dated 2008):

Target: T1, P-selectin binding to P-selectin glycoprotein ligand-1 (PSGL-1) (Homo sapiens, UniProt P16109)
T1 construct: truncated form of human P-selectin comprised of the lectin and EGF domains (P-LE)
T1 sequence (P16109 42-198): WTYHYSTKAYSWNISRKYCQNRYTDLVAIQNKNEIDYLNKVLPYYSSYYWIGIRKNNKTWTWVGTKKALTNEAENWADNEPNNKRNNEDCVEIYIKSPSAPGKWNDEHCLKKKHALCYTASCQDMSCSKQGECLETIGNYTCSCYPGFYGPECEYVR
Assay: Biacore assay: inhibition of P-selectin (P-LE) binding to PSGL-1 (SGP-3)
Conditions: at 1 mM
Method: Compounds of the invention can be assayed for selectin inhibitory activity using any of the procedures known in the art. One convenient procedure is the determination of IC50 values for inhibition of P-selectin binding to P-selectin glycoprotein ligand-1 (PSGL-1) using Biacore.
The Biacore 3000 is an instrument that uses surface plasmon resonance to detect binding of a solution phase analyte to an immobilized ligand on a sensor chip surface. The analyte sample is injected under flow using a microfluidic system. Binding of analyte to ligand causes a change in the angle of refracted light at the surface of the sensor chip, measured by the Biacore instrument in resonance units (RUs).
SGP-3 is a purified sulfoglycopeptide form of human PSGL-1 that contains the P-selectin binding determinants (See Somers et al., 2000, Cell 103, 467-479). SGP-3 was biotinylated via amine chemistry at a unique C-terminal lysine residue and immobilized on streptavidin-coated SA sensor chip. […]
The Biacore assay measures the signal in RU produced by binding of P-LE to SGP-3 in the presence and absence of inhibitors. Percent inhibition of binding is calculated by dividing the inhibited signal by the uninhibited signal subtracting this value from one then multiplying by one hundred. […] The data from this titration are plotted, RU values vs. concentration, and the IC50 is determined by extrapolation from the plot. […]

## CC1(C)[C@@H](O[C@H]2O[C@H](C(=O)O)[C@@H](O)[C@H](O)[C@H]2O[C@@H]2O[C@H](C(=O)O)[C@@H](O)[C@H](O)[C@H]2O)CC[C@]2(C)[C@H]3C(=O)C=C4[C@@H]5C[C@@](C)(C(=O)O)CC[C@]5(C)CC[C@@]4(C)[C@]3(C)CC[C@@H]12 [Glycerrhizzin]
  Percent inhibition of binding (positive control): 50%
